Results from US7569351B2 (Oncotherapy Science, Inc., priority 2000, dated 2009).

Legend:
[1] = test system: U373MG cells; test: Antisense inhibition of p53-induced apoptosis (FACS); format: cell-based, human; details: 1 μM oligonucleotide 4 hr, then Ad-p53, 48 hr
[2] = test system: p53AIP1; test: Antisense inhibition of p53AIP1 expression (RT-PCR); format: cell-based, human; details: U373MG, 1 μM oligonucleotide 4 hr, then Ad-p53, 48 hr
[3] = test system: mitochondrial ΔΨm; test: Mitochondrial ΔΨm by Rhodamine 123 in HeLa mock parental cells; format: cell-based, human; details: MOI 100 pfu/cell, 60 hr after infection
Description: (§1) The cells were labeled with Rhodamine 123 at 60 hr after infection, and fluorescence was analyzed by FACScan. The horizontal axis indicates 10^0 at left end, 10^4 at right end, and 10^2 at center, respectively.
(§2) Next, the mitochondrial ΔΨm itself was analyzed. Detection of mitochondrial membrane potential was performed as follows. […] Sixty hours after infection, adherent and floating cells were collected by trypisinization, and washed twice with cold PBS. Rhodamine 123 (10 nM) in PBS was added to the cells, and were incubated for 30 min at 37° C. Fluorescence was measured by flow cytometry.

[4] = test system: p53AIP1; test: Immunocytochemical staining of endogenous p53AIP1 in mitochondria; format: cell-based, human; details: MCF7; STS 0.5 μM 24 hr, TNFα 10 ng/ml 48 hr
From the text: (§3) FIG. 17 presents photographs showing the expression of p53AIP1 protein in the mitochondria, and the function of p53AIP1 protein in apoptosis induced by UV or STS. […] Twenty-four hours after STS and UV damage or 48 hr after TNFα damage, p53AIP1 protein and mitochondria in the cells were stained with FITC-conjugated rabbit anti-p53AIP1 antibody and Mito Tracker Red (CMXRos), respectively. The nuclei was visualized by DAPI staining. […] MCF7 cells were transfected with AS or sense oligonucleotides (SE) (1 μM) using Lipofectin reagent (GIBCO-BRL) for 4 hr, and then the cells were damaged by UV irradiation (50 J/m^2). Thirty-six hours after transfection, p53AIP1 expression was evaluated by Western blotting.
Incubation times and radiation doses were as follows: for RT-PCR, STS treatment was performed for 24 hr and TNFα and UV, for 48 hr; for Western blotting, STS, for 36 hr and TNFα and UV, for 48 hr; for FACS and TUNEL assays, STS (0.5 μM) and UV (50 J/m^2) for 36 hr and TNFα (10 ng/ml), for 72 hr; and for immunocytochemical analysis, STS (0.5 μM) and UV (50 J/m^2), for 24 hr and TNFα (10 ng/ml) for 48 hr.

[5] = test system: p53AIP1; test: p53AIP1 expression after apoptosis stimulators (Western blotting, RT-PCR); format: cell-based, human; details: MCF7 cells
Description: FIG. 15 presents photographs showing the expression of p53AIP1 through different apoptotic pathways, which was detected by Western blotting (A) and semiquantitative RT-PCR (B) analyses. MCF7 cells were collected at 36 hr after STS damage and 48 hr after UV or TNFα damage for Western blotting analysis, or 24 hr after STS damage, and 48 hr after UV or TNFα damage for RT-PCR. Expression of β-actin or β2MG serves as a control.
Cells were plated 24 hr before apoptosis-inducing treatment, and grown to 60%-70% confluency at the time of treatment. To test whether the expression of p53AIP1 in response to apoptotic stresses, MCF7 (breast carcinoma) cells were continuously incubated with staurosporine or TNFα, or were treated with UV at given dosages (J/m^2) using a UV cross-linker (Stratagene). […] The cells (2×10^4 or more) were analyzed in a flow cytometer (FACScalibur; Becton Dickinson) to determine the percentage of sub-G1 nuclei in the cell population. […]
For RT-PCR analysis, total RNA was first isolated from cells using the RNeasy spin column kit (QIAGEN) according to the manufacturer's instructions. cDNAs were synthesized from 5 μg of total RNA using SuperScript Pre-amplification System (GIBCO-BRL). The exponential phase was determined for RT-PCR within 15 cycles to 30 cycles to allow semiquantitative comparisons among cDNAs derived from identical reactants. […]

[6] = test system: MCF7 cells; test: Antisense effect on apoptosis in MCF7 (FACS sub-G1); format: cell-based, human; details: MCF7, AS 1 μM
Description: MCF7 cells were transfected with AS or SE (1 μM) using Lipofectin reagent (GIBCO-BRL) for 4 hr, and treated with UV irradiation, STS or TNFα.
Cells were plated 24 hr before apoptosis-inducing treatment, and grown to 60%-70% confluency at the time of treatment. To test whether the expression of p53AIP1 in response to apoptotic stresses, MCF7 (breast carcinoma) cells were continuously incubated with staurosporine or TNFα, or were treated with UV at given dosages (J/m^2) using a UV cross-linker (Stratagene). Floating and adherent cells were collected, and subjected to analyses by Western blotting, FACS, and RT-PCR analysis. For FACS analysis, adherent and detached cells were combined and fixed with 75% ethanol at 4° C. After rinsed twice with PBS, cells were incubated at 37° C. for 30 min with 1 ml PBS containing boiled RNase. Cells were then stained in 1 ml PBS containing 10 μg of propidium iodide. The cells (2×10^4 or more) were analyzed in a flow cytometer (FACScalibur; Becton Dickinson) to determine the percentage of sub-G1 nuclei in the cell population. In situ terminal transferase-mediated dUTP nick end-labeling (TUNEL) was performed using Apoptag Direct (Oncor) according to the manufacturer's instructions.
Next, the intracellular localization of endogenous p53AIP1 during apoptosis through different-pathways was identified. In human breast carcinoma cells MCF7 that were not exposed to any apoptosis stimulator, the expression of p53AIP1 was not detected. […] No staining of p53AIP1 was observed after TNFα treatment (FIG. 17). To confirm the involvement of p53AIP1 in apoptotic processes, experiments using an antisense oligonucleotide (AS) corresponding to the p53AIP1 gene were performed. To inhibit endogenous p53AIP1 expression, antisense oligonucleotide (AS2: […]/SEQ ID NO: 30) and a control sense oligonucleotides (SE2: […]/SEQ ID NO: 31) were designed based on the sequence of the p53AIP1 gene, and then purified by HPLC. […] After 36 hr from the treatment, apoptotic cells were analyzed by FACS and TUNEL analysis.

[7] = test system: p53AIP1; test: Antisense inhibition of p53AIP1 expression in MCF7 (Western blotting); format: cell-based, human; details: MCF7, AS 1 μM, after UV irradiation, compared with sense oligonucleotide
From the text: as §3
Next, the intracellular localization of endogenous p53AIP1 during apoptosis through different-pathways was identified. In human breast carcinoma cells MCF7 that were not exposed to any apoptosis stimulator, the expression of p53AIP1 was not detected. […] No staining of p53AIP1 was observed after TNFα treatment (FIG. 17). To confirm the involvement of p53AIP1 in apoptotic processes, experiments using an antisense oligonucleotide (AS) corresponding to the p53AIP1 gene were performed. […] After 36 hr from the treatment, apoptotic cells were analyzed by FACS and TUNEL analysis.

[8] = test system: p21^Waf1; test: Induction of p21Waf1 by DNA damage in NHDF (RT-PCR); format: cell-based, human; details: adriamycin 0.2 μg/ml
Description: (§4) Expression of the GAPDH gene was determined as a quantity control. p53AIP1 and p21/WAF1 expression induced by γ irradiation (IR) and adriamycin treatment (ADR) is analyzed.
(§5) DNA-damaging treatment was performed as follows.
(§6) Cells were inoculated 24 hr before treatment, and grown to 60% to 70% confluency. NHDF and SW480 cells were continuously treated with adriamycin (doxorubicin) at a concentration of 0.2 μg/ml or were treated with γ-ray irradiation at about 1 Gy/min (14 Gy).

[9] = test system: p53AIP1; test: Induction of endogenous p53AIP1 by DNA damage in NHDF (RT-PCR); format: cell-based, human; details: adriamycin 0.2 μg/ml
Description: as §4, §5, §6

[10] = test system: mitochondrial ΔΨm; test: Mitochondrial membrane potential by Mitotracker Red CMXRos; format: cell-based; details: 24 hr after transfection
Description: To evaluate the mitochondrial membrane potential, cells were incubated in culture media containing […] Mitotracker Red CMXRos (Molecular Probes) at 37° C. for 30 min, and then fixed to be labeled with a longer wavelength (579 nm to 599 nm) fluorescence emission.

[11] = test system: T98G cells; test: TUNEL analysis after transfection of expression vectors; format: cell-based, human; details: harvested 48 hr after transfection
Description: To investigate whether introduction of exogenous p53AIP1 could indeed induce apoptotic cell death, in situ terminal transferase-mediated dUTP nick end-labeling (TUNEL) analysis was performed. […] TUNEL analysis was performed using Apotag Direct ([…]) according to the manufacturer's instructions. […] DNA fragments were evaluated using the ApoAlert LM-PCR ladder assay kit (Clontech) according to the manufacturer's instructions.

[12] = test system: mitochondrial ΔΨm; test: Mitochondrial ΔΨm by Rhodamine 123 in HeLa cells overexpressing bcl-2; format: cell-based, human; details: both HeLa cell lines overexpressing bcl-2, 60 hr after infection
Description: as §1, §2

[13] = test system: WTp53 cancer cell lines; test: Anti-tumor effect in vitro, nine cancer cell lines containing wild-type p53; format: cell-based, human
Description: Apoptotic cells were analyzed by FACScan at 96 hr after infection.

Molecule: GGAGGCAGGTGAGGAG (listed as DNA, chemistry not given here) [SE1, reference compound]
- inhibition of the induction of p53-induced apoptosis [1]: not
- inhibition of the induction of p53AIP1 expression [2]: not

Molecule: LacZ: exogenous LacZ expressed from Ad-LacZ, control [reference compound]
- down-regulation of mitochondrial ΔΨm [3]: did not

Molecule: CN[C@@H]1C[C@H]2O[C@@](C)([C@@H]1OC)n1c3ccccc3c3c4c(c5c6ccccc6n2c5c31)C(=O)NC4 [STS, staurosporine]
- staining of p53AIP1 in the mitochondria [4]: intense staining
- expression of p53AIP1 during apoptotic induction [5]: increased significantly in a dose-dependent manner

Molecule: TNFα
- staining of p53AIP1 in the mitochondria [4]: No staining

Molecule: TCCCCTGGATGGGATC (chemistry not given here) [AS2]
- inhibition of cell death induced by TNFα ([6]; TNFα 10 ng/ml): did not inhibit
- apoptotic (sub-G1) cell population, second pair ([6]; reduced from 33%, after UV irradiation): 16%
- apoptotic (sub-G1) cell population, first pair ([6]; reduced from 37%, stimulus not clearly printed): 28%
- reduction in the p53AIP1 expression level [7]: 50%

Molecule: COc1cccc2c1C(=O)c1c(O)c3c(c(O)c1C2=O)C[C@@](O)(C(=O)CO)C[C@@H]3O[C@H]1C[C@H](N)[C@H](O)[C@H](C)O1 [adriamycin, adriamycin (doxorubicin)]
- time of maximum p21^Waf1 expression [8]: 6 h
- time of maximum levels of p53AIP1 [9]: 24 h

Molecule: GATCCCATCCAGGGGA (listed as DNA, chemistry not given here) [AS1]
- inhibition of the induction of p53-induced apoptosis [1]: significantly inhibited
- inhibition of the induction of p53AIP1 expression [2]: significantly inhibited

B1: p53AIP1α: p53-dependent apoptosis-associated protein, 124 amino acids, SEQ ID NO: 2, expressed from vector (protein, listed as Homo sapiens)
chain: MGSSSEASFRSAQASCSGARRQGLGRGDQNLSVMPPNGRAQTHTPGWVSDPLVLGAQVHGGCRGIEALSVSSGSWSSATVWILTGLGLGLSRPFLPGATVLRDRPLGSAFELSYDQKKAPLRLQ
- dissipation of mitochondrial ΔΨm [10]: Almost all cells
- transfected T98G cells undergoing apoptosis (TUNEL) [11]: more than half
- down-regulation of mitochondrial ΔΨm [3]: down-regulated
- down-regulation of mitochondrial ΔΨm with bcl-2 overexpression [12]: blocked

B2: p53AIP1: p53-regulated Apoptosis Inducing Protein 1, exogenous expression by adenovirus-mediated gene transfer (protein)
chain: MGSSSEASFRSAQASCSGARRQGLGRGDQNLSVMPPNGRAQTHTPGWVSDPLVLGAQVHGGCRGIEALSVSSGSWSSATVWILTGLGLGLSRPFLPGATVLRDRPLGSAFELSYDQKKAPLRLQ
modifications: left off: small tags and cut ends
notes: p53-regulated Apoptosis Inducing Protein 1, exogenous expression by adenovirus-mediated gene transfer
- induction of apoptosis in WTp53 cancer cell lines ([13]; nine lines tested, adenovirus-mediated gene transfer, 96 hr): effectively induced apoptosis in six of the WTp53 cancer cell lines
- cell killing compared with p53 ([13]; the six responsive WTp53 lines): four of the six cell lines were killed more effectively
